From patent publication US20100179130A1, “USE OF PIPERINE AND DERIVATIVES THEREOF FOR THE THERAPY OF NEUROLOGICAL CONDITIONS” (SYNGIS Bioscience GmbH & Co. KG, priority 2007, published 2010)

Legend:
[1] = cited from earlier work
SH-SY5Y neuronal cells = assay: In vitro anti-apoptosis assay, staurosporine induced apoptosis, Caspase-Glo 3/7; format: cell-based, human
adult rats = assay: Neurogenesis in vivo, BrdU/NeuN co-staining of hippocampal slices; design: species or system rat; conditions: 6 weeks
Experimental: Male adult rats were divided in three groups. The rats were treated i.p. with 20% Solutol-HS15 (BASF SE) as vehicle (control group, n=11), 1 mg/kg bodyweight piperine (piperine I group, n=14 with total dose of 5 mg/kg piperin), or 10 mg/kg bodyweight piperine (piperine II group, n=13 with total dose of 50 mg/kg) once daily for 5 consecutive days. Piperine was solved in 20% Solutol-HS15 as described in Example 7. Further, all animals received BrdU (i.p. 50 mg/kg bodyweight) twice daily during these initial 5 days. BrdU is stably incorporated by dividing cells and therefore a suitable tool for the labelling of cells that divided within an experimentally defined time-window (i.e. the time during which BrdU was administered, which in the present example corresponds to the time during which Piperine was administered (Bagley et al BMC Neurosci. 2007; 8:92). The animals were sacrificed 6 weeks after the beginning of the treatment. Brains were removed rapidly, fixed with 4% paraformaldehyd and stored in 4% paraformaldehyd for further immunohistochemical analysis. 10 μm slices of the hippocampal area were generated and stained with sheep-anti-BrdU antibodies (Abcam, 1:100) and mouse-anti-NeuN antibodies (Chemicon, 1:500). Subsequently, the slices were stained for fluorescent detection with anti-sheep-biotin plus streptavidin-Cy2 and anti-mouse-Alexa555 (Molecular Probes, Fisher). […]

[2] = in vivo; cited from earlier work
[3] = oral, approximately 5 to 20 mg daily, human patients; cited from earlier work
mouse SCI model = assay: Mouse spinal cord injury (SCI) model, Basso-Mouse-Score; format: in vivo; conditions: i.p. 10 mg/kg, then 20 mg/kg on two days, plus 1 mg/kg daily s.c. over 2 weeks; day 1-35
Experimental: Female mice at 2 months of age were anesthetized using inhalation anesthesia (1% Halothane/30% N20/70% O2). After laminectomy at the vertebral level Th8/9, the spinal cord was dorsally transected to ˜80% with fine iridectomy scissors leaving a ventral tissue bridge intact as previously described (Demjen et al. Nat Med 2004; 10: 389-395). The animals were treated postoperatively with gentamycin (i.p., 1 mg/kg bodyweight) once a day for 7 days. Bladders were emptied manually until restoration of autonomic bladder function. In the treatment experiment, C57BL/6 wild-type mice (n=20) received i.p. piperine during the operation (10 mg/kg bodyweight) and on the two following days (20 mg/kg bodyweight, each time. Further, the mice received a daily dose of 1 mg/kg bodyweight by continuous s.c. application over 2 weeks via an osmotic minipump (Alzet). Control group (sham, n=20) was treated accordingly but received only vehicle (20% Solutol-HS15). Piperine was solved in 20% Solutol-HS15 as described in Example 7. All animal experiments were approved by the ethical authorities. As a measurement for the outcome the Basso-Mouse-Score (BMS) (Basso et al. J Neurotrauma 2006; 23: 635-659) was determined at day 1, 7, 14, 21, 28, and 35 after operation. The BMS scores a value between 0 (no movement of the hind limbs) to 9 (healthy mouse).

[4] = system: carageenan-induced rat paw edema; conditions: in vivo; cited from earlier work
mice = conditions: cited from earlier work
rat MCAO model = assay: Rat MCAO (filament) model for stroke, infarct volume by TTC staining

In the case of `O=C(/C=C/C=C/c1ccc2c(c1)OCO2)N1CCCCC1` [Piperine, (E,E)-1-[5-(1,3-benzodioxol-5-yl)-1-oxo-2,4-pentadienyl]piperidine], the solubility in water [1] is listed as “essentially insoluble in water”, the “degree of apoptosis relative to the staurosporine control” value (SH-SY5Y neuronal cells; compound 1 μM in the presence of staurosporine 0.1 μM, SH-SY5Y) is listed as 66% and the “reduction of the staurosporine induced apoptosis” value (SH-SY5Y neuronal cells; piperine 100 μM to 10 μM with staurosporine 0.1 μM, 5 h) is listed as “significant reduction”. The “apoptotic effect by themselves” value (SH-SY5Y neuronal cells; without staurosporine) was “neither piperine nor derivatives thereof exhibited an apoptotic effect by themselves”, the “neurogenesis (NeuN/BrdU-positive cells per slice) compared to the control level” value (adult rats; 1 mg/kg i.p. once daily for 5 days (total 5 mg/kg)) was “clearly elevated levels of neurogenesis” and the “neurogenesis (NeuN/BrdU-positive cells per slice) compared to the control level” value (adult rats; 10 mg/kg i.p. once daily for 5 days (total 50 mg/kg)) was “clearly elevated levels of neurogenesis”. The “time of peak blood levels after dosing” value [2] was 1 to 2 h, the tolerability [3] was “well tolerated” and the “outcome of experimental SCI (Basso-Mouse-Score)” value (mouse SCI model) was “clearly improved the outcome”. For the same compound, the anti-inflammatory activity [4] was “significant anti-inflammatory activity”, the “seizure activity induced by L-glutamate, N-methyl-D-aspartate or guanidinosuccinate” value (mice) was “did not significantly block seizure activity” and the “clonic convulsions induced by kainate” value (mice; injected intra-peritoneally) was “inhibited clonic convulsions”. For the same compound, the “total edema-corrected infarct size” value (rat MCAO model; 10 mg/kg i.v. 30 min after onset of occlusion, 24 h, mean ± SEM, n=30, p=0.031 vs vehicle) was 151±17 mm^3, the “edema-corrected infarct volume, subcortical areas” value (rat MCAO model; 10 mg/kg i.v. 30 min after onset of occlusion, 24 h, mean ± SEM, not statistically significant) was 78±6 mm^3 and the “edema-corrected infarct volume, cortex” value (rat MCAO model; 10 mg/kg i.v. 30 min after onset of occlusion, 24 h, mean ± SEM, p=0.018 vs vehicle) was 73±14 mm^3. For the same compound, the “tolerability of the treatment” value (rat MCAO model; 10 mg/kg i.v., rat) was “well tolerated”.
